# Source: ChEMBL document CHEMBL5241115, “Postmodification of voxelotor (GBT 440) via [Rh]-catalyzed cross dehydrogenative coupling with olefins” (2022)
# Assay: Induction of oxygen binding efficiency of haemoglobin from human sickled red blood cells at 100 uM measured every 10 mins for 180 mins by spectral scan analysis relative to control
# Type: functional, Erythrocyte
# Conditions: 3 h
row,Structure (SMILES),Activity [%]
1,Cc1ccc(/C=C/c2cnn(C(C)C)c2-c2ncccc2COc2cccc(O)c2C=O)cc1,78.9
2,COc1ccc(/C=C/c2cnn(C(C)C)c2-c2ncccc2COc2cccc(O)c2C=O)cc1,78.6
3,COc1ccc(/C=C/c2cnn(C(C)C)c2-c2ncccc2COc2cccc(O)c2C=O)c(OC)c1,81.1
4,CCCCC(=O)/C=C/c1cnn(C(C)C)c1-c1ncccc1COc1cccc(O)c1C=O,82
5,CC(C)n1nccc1-c1ncccc1COc1cccc(O)c1C=O [VOXELOTOR],100
